Laboratory results: ChEMBL document CHEMBL1681696, “Discovery of benzimidazole pyrrolidinyl amides as prolylcarboxypeptidase inhibitors” (Bioorg Med Chem Lett, 2011)
Blank lines part the entries; values can stand above or below the compound they belong to. Activity calls are given as the source filed them. The rule behind the calls is not given here.

Experiments:
[1] = biological target: T1, Lysosomal Pro-X carboxypeptidase (Mus musculus, UniProt Q7TMR0); experiment: Inhibition of PrCP in mouse plasma assessed as angiotensin 3 cleavage; assay type: cell-free
T1 sequence (Q7TMR0 whole entry): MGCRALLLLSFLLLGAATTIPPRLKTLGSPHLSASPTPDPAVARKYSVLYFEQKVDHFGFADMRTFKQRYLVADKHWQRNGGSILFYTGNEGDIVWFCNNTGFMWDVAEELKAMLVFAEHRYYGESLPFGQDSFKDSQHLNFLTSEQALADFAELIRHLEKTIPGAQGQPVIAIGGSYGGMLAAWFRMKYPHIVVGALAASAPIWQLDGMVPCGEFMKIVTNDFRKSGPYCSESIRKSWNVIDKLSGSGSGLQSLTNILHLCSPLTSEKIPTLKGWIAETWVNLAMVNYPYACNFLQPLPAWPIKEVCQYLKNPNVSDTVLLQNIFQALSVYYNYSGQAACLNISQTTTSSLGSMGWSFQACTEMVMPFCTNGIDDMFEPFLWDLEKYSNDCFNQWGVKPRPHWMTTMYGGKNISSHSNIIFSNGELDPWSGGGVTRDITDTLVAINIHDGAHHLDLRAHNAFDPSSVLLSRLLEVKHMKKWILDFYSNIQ

[2] = biological target: T2, Lysosomal Pro-X carboxypeptidase (Homo sapiens) (UniProt P42785); experiment: Inhibition of human PrCP at 5 uM
T2 sequence (whole entry): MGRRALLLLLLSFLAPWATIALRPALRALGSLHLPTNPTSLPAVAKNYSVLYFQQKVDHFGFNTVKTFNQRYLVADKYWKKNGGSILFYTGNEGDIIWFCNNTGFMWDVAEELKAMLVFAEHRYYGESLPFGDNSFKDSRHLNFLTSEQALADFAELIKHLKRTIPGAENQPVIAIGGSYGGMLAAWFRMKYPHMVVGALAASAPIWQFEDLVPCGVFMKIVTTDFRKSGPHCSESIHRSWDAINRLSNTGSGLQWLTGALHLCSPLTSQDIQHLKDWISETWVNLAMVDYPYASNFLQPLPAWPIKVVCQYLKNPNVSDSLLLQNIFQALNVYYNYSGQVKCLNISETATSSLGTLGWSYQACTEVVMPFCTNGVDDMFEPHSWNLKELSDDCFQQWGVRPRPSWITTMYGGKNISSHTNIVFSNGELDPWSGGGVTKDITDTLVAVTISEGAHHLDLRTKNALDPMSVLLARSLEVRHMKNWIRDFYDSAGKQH

[3] = biological target: T1, Lysosomal Pro-X carboxypeptidase; experiment: Inhibition of mouse PrCP
[4] = Half life in mouse at 1 mg/kg, iv and 2 mg/kg, po; assay type: ADME, organism-based; details: in vivo
[5] = Oral bioavailability in mouse at 2 mg/kg; assay type: ADME, organism-based; details: in vivo
[6] = Volume of distribution at steady state in mouse at 1 mg/kg, iv and 2 mg/kg, po; assay type: ADME, organism-based; details: in vivo, read-out: Vdss
[7] = Clearance in mouse at 1 mg/kg, iv and 2 mg/kg, po; assay type: ADME, organism-based; details: in vivo
[8] = Plasma concentration in eDIO mouse at 10 to 60 mg/kg, sc by continuous infusion pump for 7 days; assay type: ADME, organism-based; design: dose 10-60 mg/kg, route subcutaneous
[9] = Drug level in mdr1a deficient mouse brain at 0.5 mg/kg after 4 hrs; assay type: ADME, organism-based; design: dose 0.5 mg/kg; details: read-out: Drug uptake
Mus musculus [10] = experiment: Antiobesity activity in PrCP knockout mouse assessed as reduction of body weight at 12 mg/kg sc by continuous infusion pump qd for 7 days; assay type: functional, organism-based; design: dose 12 mg/kg
[11] = Ratio of drug level in brain to plasma in wild type CF1 mouse at 0.5 mg/kg after 0.5 hrs; assay type: ADME, organism-based; design: dose 0.5 mg/kg; details: read-out: BPR
Mus musculus [12] = organism: Mus musculus; details: Plasma, 30 mg/kg
Description: Inhibition of ex vivo PrCP engagement in eDIO mouse plasma at 30 mg/kg, sc by continuous infusion pump for 7 days

[13] = Plasma concentration in PrCP knockout mouse at 12 mg/kg sc by continuous infusion pump qd for 7 days; assay type: ADME, organism-based; design: dose 12 mg/kg, route subcutaneous
Mus musculus [14] = experiment: Inhibition of ex vivo PrCP engagement in eDIO mouse plasma at 60 mg/kg, sc by continuous infusion pump for 7 days additionally treated 2 uM of compound; assay type: functional; details: 168 h, route subcutaneous
Mus musculus [15] = experiment: Antiobesity activity in eDIO mouse assessed as reduction of food intake at 12 mg/kg sc by continuous infusion pump qd for 7 days; assay type: functional, organism-based; design: dose 12 mg/kg
[16] = Drug level in wild type CF1 mouse plasma at 0.5 mg/kg after 4 hrs; assay type: ADME, organism-based; design: dose 0.5 mg/kg; details: read-out: Drug uptake
[17] = Drug level in wild type CF1 mouse brain at 0.5 mg/kg after 4 hrs; assay type: ADME, organism-based; design: dose 0.5 mg/kg; details: read-out: Drug uptake
[18] = Plasma concentration in eDIO mouse at 12 mg/kg sc by continuous infusion pump qd for 7 days; assay type: ADME, organism-based; design: dose 12 mg/kg, route subcutaneous
[19] = Drug level in mdr1a deficient mouse plasma at 0.5 mg/kg after 4 hrs; assay type: ADME, organism-based; design: dose 0.5 mg/kg; details: read-out: Drug uptake
[20] = Drug level in mdr1a deficient mouse plasma at 0.5 mg/kg after 0.5 hrs; assay type: ADME, organism-based; design: dose 0.5 mg/kg; details: read-out: Drug uptake
Mus musculus [21] = organism: Mus musculus; details: Plasma, 10 mg/kg
Description: Inhibition of ex vivo PrCP engagement in eDIO mouse plasma at 10 mg/kg, sc by continuous infusion pump for 7 days

[22] = Drug level in wild type CF1 mouse brain at 0.5 mg/kg after 0.5 hrs; assay type: ADME, organism-based; design: dose 0.5 mg/kg; details: read-out: Drug uptake
Mus musculus [23] = experiment: Antiobesity activity in eDIO mouse assessed as reduction of body weight at 12 mg/kg sc by continuous infusion pump qd for 7 days; assay type: functional, organism-based; design: dose 12 mg/kg
[24] = Ratio of drug level in brain to plasma in wild type CF1 mouse at 0.5 mg/kg after 4 hrs; assay type: ADME, organism-based; design: dose 0.5 mg/kg; details: read-out: BPR
[25] = Drug level in wild type CF1 mouse plasma at 0.5 mg/kg after 0.5 hrs; assay type: ADME, organism-based; design: dose 0.5 mg/kg; details: read-out: Drug uptake
[26] = Ratio of drug level in brain to plasma in mdr1a deficient mouse at 0.5 mg/kg after 0.5 hrs; assay type: ADME, organism-based; design: dose 0.5 mg/kg; details: read-out: BPR
Mus musculus [27] = experiment: Inhibition of ex vivo PrCP engagement in eDIO mouse plasma at 60 mg/kg, sc by continuous infusion pump for 7 days; assay type: functional; details: 168 h, route subcutaneous
[28] = Drug level in mdr1a deficient mouse brain at 0.5 mg/kg after 0.5 hrs; assay type: ADME, organism-based; design: dose 0.5 mg/kg; details: read-out: Drug uptake
[29] = Ratio of drug level in brain to plasma in mdr1a deficient mouse at 0.5 mg/kg after 4 hrs; assay type: ADME, organism-based; design: dose 0.5 mg/kg; details: read-out: BPR
Mus musculus [30] = experiment: Antiobesity activity in PrCP knockout mouse assessed as reduction of food intake at 12 mg/kg sc by continuous infusion pump qd for 7 days; assay type: functional, organism-based; design: dose 12 mg/kg

SMILES: O=C(O)c1ccc(-c2noc(C3CCN(CCC(=O)N4CCC[C@H]4c4nc5cc(Cl)c(Cl)cc5[nH]4)CC3)n2)cc1
- IC50 [1]: 241 nM

SMILES: Cn1nc(C2CCN(CCC(=O)N3CCC[C@H]3c3nc4cc(Cl)c(Cl)cc4[nH]3)CC2)cc1-c1cccnc1
- IC50 [1]: 39 nM

SMILES: O=C(CCN1CCC(c2ccccc2)CC1)N1CCC[C@H]1c1nc2cc(Cl)c(Cl)cc2[nH]1
- IC50 [1]: > 10000 nM

SMILES: O=C(CCN1CCC(c2cn[nH]c2)CC1)N1CCC[C@H]1c1nc2cc(Cl)c(Cl)cc2[nH]1
- IC50 [3]: 107 nM

SMILES: O=C(CCN1CCC(c2nc(-c3ncccn3)no2)CC1)N1CCC[C@H]1c1nc2cc(Cl)c(Cl)cc2[nH]1
- IC50 [1]: 745 nM

SMILES: CS(=O)(=O)c1ccc(-c2noc(C3CCN(CCC(=O)N4CCC[C@H]4c4nc5cc(Cl)c(Cl)cc5[nH]4)C(=O)C3)n2)cc1 (stereo partly drawn)
- half-life [4]: 1.3 h
- bioavailability [5]: 3%
- Vd [6]: 3 L/kg
- IC50 [1]: 425 nM
- clearance [7]: 115 mL/min/kg

SMILES: CS(=O)(=O)c1ccc(-c2noc(C3CCN(CCC(=O)N4CCC[C@H]4c4nc5cc(Cl)c(Cl)cc5[nH]4)CC3)n2)cc1
- half-life [4]: 2.2 h
- bioavailability [5]: 14%
- Vd [6]: 7.7 L/kg
- IC50 [1]: 10 nM
- IC50 [3]: 0.41 nM
- clearance [7]: 54 mL/min/kg

SMILES: CC(C)(CCCC(=O)N1CCC[C@H]1c1nc2cc(Cl)c(Cl)cc2[nH]1)N1CCC(c2nc(-c3ccccn3)no2)CC1
- half-life [4]: 3.1 h
- bioavailability [5]: 3%
- Vd [6]: 12 L/kg
- IC50 [1]: 113 nM
- IC50 [3]: 19 nM
- clearance [7]: 60 mL/min/kg

SMILES: O=C(CCN1CCC(c2nc(-c3cnccn3)no2)CC1)N1CCC[C@H]1c1nc2cc(Cl)c(Cl)cc2[nH]1
- IC50 [1]: 435 nM

SMILES: O=C(CCN1CCC(c2cc(-c3ccncc3)[nH]n2)CC1)N1CCC[C@H]1c1nc2cc(Cl)c(Cl)cc2[nH]1
- IC50 [1]: 485 nM

The next lines start with results.

- IC50 [1]: 430 nM
SMILES: O=C(CCN1CCC(c2ccncc2)CC1)N1CCC[C@H]1c1nc2cc(Cl)c(Cl)cc2[nH]1

- inhibition [2]: 93%
SMILES: O=C(CCN1CCC(c2ccccc2)C1)N1CCC[C@H]1c1nc2cc(Cl)c(Cl)cc2[nH]1 (stereo partly drawn)

- IC50 [1]: 155 nM
SMILES: O=C(CCN1CCC(c2nc(-c3cccnc3)no2)CC1)N1CCC[C@H]1c1nc2cc(Cl)c(Cl)cc2[nH]1

- IC50 [1]: 173 nM
- IC50 [3]: 3.5 nM
SMILES: O=C(CCN1CCC(c2nc(-c3ccccn3)no2)CC1)N1CCC[C@H]1c1nc2cc(Cl)c(Cl)cc2[nH]1

- IC50 [1]: 8000 nM
SMILES: O=C(CCN1CCC(c2cnccn2)CC1)N1CCC[C@H]1c1nc2cc(Cl)c(Cl)cc2[nH]1

- half-life [4]: 4.9 h
- bioavailability [5]: 8%
- Vd [6]: 5.7 L/kg
- IC50 [1]: 29 nM
- IC50 [3]: 0.53 nM
- clearance [7]: 38 mL/min/kg
SMILES: O=C(CCN1CCC(c2nc(-c3ccncc3)no2)CC1)N1CCC[C@H]1c1nc2cc(Cl)c(Cl)cc2[nH]1

- IC50 [1]: 2900 nM
SMILES: O=C(CCN1CCC(n2ncnn2)CC1)N1CCC[C@H]1c1nc2cc(Cl)c(Cl)cc2[nH]1

- concentration at 168 h [8]: 90 nM
- concentration at 4 h [9]: 54 nM
- half-life [4]: 4.1 h
- bioavailability [5]: 4%
- Kp at 0.5 h [11]: 0.2
- concentration at 168 h [13]: 290 nM
- concentration at 4 h [16]: 4.6 nM
- concentration at 4 h [17]: 4 nM
- concentration at 168 h [18]: 210 nM
- Vd [6]: 9.4 L/kg
- IC50 [1]: 6.7 nM
- IC50 [3]: 0.8 nM
- concentration at 4 h [19]: 4 nM
- clearance [7]: 65 mL/min/kg
- concentration at 0.5 h [20]: 51 nM
- concentration at 0.5 h [22]: 10 nM
- Kp at 4 h [24]: 0.88
- concentration at 0.5 h [25]: 54 nM
- Kp at 0.5 h [26]: 1.4
- concentration at 0.5 h [28]: 70 nM
- Kp at 4 h [29]: 13
SMILES: Cn1nc(C2CCN(CCC(=O)N3CCC[C@H]3c3nc4cc(Cl)c(Cl)cc4[nH]3)CC2)cc1-c1ccncc1
- Activity (Mus musculus [10]): Active
- inhibition (Mus musculus [12]): Active
- inhibition in vivo at 60 mg/kg (Mus musculus [14]): 80%
- Activity (Mus musculus [15]): Active
- inhibition (Mus musculus [21]): Active
- Activity (Mus musculus [23]): Active
- inhibition in vivo at 60 mg/kg (Mus musculus [27]): 55%
- Activity (Mus musculus [30]): Active

- IC50 [1]: > 10000 nM
SMILES: O=C(CCN1CCN(c2ccccc2)CC1)N1CCC[C@H]1c1nc2cc(Cl)c(Cl)cc2[nH]1

- IC50 [1]: 290 nM
SMILES: O=C(CCN1CCC(c2cc[nH]n2)CC1)N1CCC[C@H]1c1nc2cc(Cl)c(Cl)cc2[nH]1
